According to US9499493B2, “2,4-pyrimidinediamine compounds and their uses” (Rigel Pharmaceuticals, Inc., priority 2002, dated 2016):

Key:
[1] = test system: bone marrow derived mast cells (BMMC); experiment: BMMC high cell density IgE activation: histamine; format: cell-based, mouse; conditions: anti-IgE, second part of TABLE 1
Procedure, shortened: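 IgE-sensitized BMMC (1-3×10^6 cells/ml, MT buffer) were pretreated with compound for 1 h at 37 °C in 0.5% DMSO, then stimulated with DNP-BSA (6× stimulus, 60 ng/ml) for 1 h. Supernatant was taken, and cells were re-incubated 4–5 h in WEI-conditioned medium with compound. Mediators were quantified by ELISA.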

[2] = Pilot dose finding studies (oral); conditions: in vivo
[3] = in vitro chromosomal aberration assay
[4] = test system: IgE-induced degranulation of tissue mast cells; experiment: Mouse model of passive cutaneous anaphylaxis (PCA); format: in vivo; conditions: for % Inhibition (PCA) / Plasma level: PO, 1.5% Avicel/water, pretreatment 15 min
Experimental: This model provides a direct measure of IgE-induced degranulation of tissue mast cells. In this model, IgE primed animals are exposed to an allergen challenge, and the change in permeability of dermal vasculature that results from histamine release from mast cells is measured by change in the amount of dye leakage into surrounding tissue. Inhibition of mediator release by compounds that modulate mast cell degranulation is easily measured by extracting the dye from the tissue.
In the PCA assay mice are passively sensitized by intradermal injection with anti-dinitrophenol (DNP) IgE antibodies (Day −1). At predetermined times animals are treated with the test agent (Day 0). The modulatory effect of the agent on cutaneous mast cell degranulation is measured following intravenous injection of DNP conjugated to human serum albumin (HSA-DNP), together with Evans blue dye. The resulting cross-linking of the IgE receptor and subsequent mast cell degranulation-induced increase in vascular permeability is determined by measuring the amount of dye extravasation into the tissue. Dye is extracted from the tissue by formamide, and the absorbance of this extract is read at 620 nm.

[5] = Mouse model of allergic asthma (ovalbumin); format: in vivo; conditions: less stringent protocol; subcutaneously 70 mg/kg in 67% PEG400/33% citrate buffer, 30 minutes prior to challenge
Excerpt: Mice are sensitized to ovalbumin (chicken protein) in the presence of an adjuvant (Alum) by the intraperitoneal route on day 0 and day 7. One week later, mice are challenged intranasally with ovalbumin on Days 14, 15 and 16 (more stringent model) or on Day 14 (less stringent model). This sensitization and challenge regimen leads to airway hyperresponsiveness and inflammation in the lungs, which are two dominant characteristics of human allergic asthma. In the mouse model, the in vivo airway responses are measured using a whole body plethysmograph which determines the PENH (enhanced Pause, Buxco Electronics). The PENH is a dimensionless value comprised of the peak inspiratory flow (PIF), peak expiratory flow (PEF), time of inspiration, time of expiration and relaxation time, and is considered a validated parameter of airway responsiveness. Responses to allergen challenge (OVA) are compared with animals challenged with saline only. Twenty-four hours after challenge, mice are exposed to increasing doses of methacholine (muscarinic receptor agonist) which results in smooth muscle contraction. […] In addition, a cellular infiltrate in the airway is observed in ovalbumin challenged mice when compared with the saline challenged mice. This cellular infiltrate is mainly characterized by eosinophils, but a smaller influx of neutrophils and mononuclear cells is also present.
The use of this model for the evaluation of small molecule inhibitors of mast cell degranulation has been validated is several ways. First, using mast cell deficient mice (W/W^v) it has been shown that the ovalbumin-induced responses are dependent upon the presence of mast cells.

Syk kinase = Syk kinase (Homo sapiens (Human), UniProt P43405); experiment: Isolated Syk kinase: phosphorylation of a peptide substrate or endogenous substrate (LAT)
[6] = increasing concentrations, FIG. 8

CNC(=O)COc1cccc(Nc2ncc(F)c(Nc3ccc4c(c3)NCCO4)n2)c1 [R921219, N4-(1,4-Benzoxazin-6-yl)-5-fluoro-N2-[3-(N-methylamino)carbonylmethyleneoxyphenyl]-2,4-pyrimidinediamine]
IC50 [1]: 58 nM
multiple (7-day) doses not tolerated [2]: ≥ 200 mg/kg/day
clastogenic potential [3]: not found to possess clastogenic potential
% Inhibition (PCA) ([4]; 30 mg/kg): 25%
Plasma level ([4]; 30 mg/kg): 400 ng/mL
% Inhibition (PCA) ([4]; 100 mg/kg): 68%
Plasma level ([4]; 100 mg/kg): 4000 ng/mL
% Inhibition (PCA) ([4]; 300 mg/kg): 92%
Plasma level ([4]; 300 mg/kg): 11000 ng/mL
circulating exposure levels at which active ([4]; mouse, in vivo): approximately 10 μg/ml
FcεR-mediated vascular leakage with increasing doses (in words) ([4]; solution (67% PEG/33% citrate buffer) or aqueous suspension (1.5% Avicel)): dose-dependent inhibition
ovalbumin-induced airway hyperresponsiveness and cellular influx [5]: completely blocked
mode of inhibition of Syk kinase (Syk kinase; FIG. 9): ATP competitive
Syk kinase phosphorylation of a peptide substrate (Syk kinase; [6]): dose responsive inhibition
Syk kinase phosphorylation of an endogenous substrate (LAT) (Syk kinase; [6]): dose responsive inhibition
